# Patent publication US4652566A, “Benzofuran derivatives, processes for preparing the same and antihypertensive agents containing the same” (Kaken Pharmaceutical Co., Ltd., priority 1984, dated 1987)
# Where a name gives a salt, the structure may show the parent alone.
# How the values were obtained:
# [1] = Increasing effect on a coronary blood flow (anesthetized dog); type: in vivo; conditions: administered once into perfusion channel
# Method: [Increasing effect on a coronary blood flow]
# Adult dog weighed 9 to 13 kg which was anesthetized intravenously with 30 mg/kg of pentobarbiturate was used for this experiment. The animal was cut open at a chest under a condition of an artificial respiration. After an intravenous injection of 1000 U/kg of heparin, a glass cannula was inserted into coronary ramus circumflexus by way of a left subclavina artery and a perfusion was carried out with blood introduced from a right carotid artery. A blood flow was measured by means of a electromagnetic flowmeter set up at a perfusion channel.
# Each of test compounds was dissolved in a physiologic salt solution and the solution was administered once into a perfusion channel. An increase of a coronary blood flow was indicated as a percentage of an increasing rate.
# For the purpose of a comparison, the same experiment as mentioned above was carried out on Papavelin which was commonly used as coronary vasodilator.
# [2] = target: T1, calcium antagonism (thoracic aorta spiral specimen, contraction by calcium) (Cavia porcellus, UniProt O35505); assay: Calcium antagonistic effect (contraction response by calcium of spiral thoracic aorta specimen, Magnus method); parameters: species or system Hartly male giunea pig; conditions: guinea pig thoracic aorta; for Kb: antagonism of calcium contraction, read-out: Calcium antagonistic effect, pA2 value (converted)
# T1 construct: from tissue; host or cells: thoracic aorta spiral strip of male Hartley guinea pig
# T1 sequence (O35505 whole entry): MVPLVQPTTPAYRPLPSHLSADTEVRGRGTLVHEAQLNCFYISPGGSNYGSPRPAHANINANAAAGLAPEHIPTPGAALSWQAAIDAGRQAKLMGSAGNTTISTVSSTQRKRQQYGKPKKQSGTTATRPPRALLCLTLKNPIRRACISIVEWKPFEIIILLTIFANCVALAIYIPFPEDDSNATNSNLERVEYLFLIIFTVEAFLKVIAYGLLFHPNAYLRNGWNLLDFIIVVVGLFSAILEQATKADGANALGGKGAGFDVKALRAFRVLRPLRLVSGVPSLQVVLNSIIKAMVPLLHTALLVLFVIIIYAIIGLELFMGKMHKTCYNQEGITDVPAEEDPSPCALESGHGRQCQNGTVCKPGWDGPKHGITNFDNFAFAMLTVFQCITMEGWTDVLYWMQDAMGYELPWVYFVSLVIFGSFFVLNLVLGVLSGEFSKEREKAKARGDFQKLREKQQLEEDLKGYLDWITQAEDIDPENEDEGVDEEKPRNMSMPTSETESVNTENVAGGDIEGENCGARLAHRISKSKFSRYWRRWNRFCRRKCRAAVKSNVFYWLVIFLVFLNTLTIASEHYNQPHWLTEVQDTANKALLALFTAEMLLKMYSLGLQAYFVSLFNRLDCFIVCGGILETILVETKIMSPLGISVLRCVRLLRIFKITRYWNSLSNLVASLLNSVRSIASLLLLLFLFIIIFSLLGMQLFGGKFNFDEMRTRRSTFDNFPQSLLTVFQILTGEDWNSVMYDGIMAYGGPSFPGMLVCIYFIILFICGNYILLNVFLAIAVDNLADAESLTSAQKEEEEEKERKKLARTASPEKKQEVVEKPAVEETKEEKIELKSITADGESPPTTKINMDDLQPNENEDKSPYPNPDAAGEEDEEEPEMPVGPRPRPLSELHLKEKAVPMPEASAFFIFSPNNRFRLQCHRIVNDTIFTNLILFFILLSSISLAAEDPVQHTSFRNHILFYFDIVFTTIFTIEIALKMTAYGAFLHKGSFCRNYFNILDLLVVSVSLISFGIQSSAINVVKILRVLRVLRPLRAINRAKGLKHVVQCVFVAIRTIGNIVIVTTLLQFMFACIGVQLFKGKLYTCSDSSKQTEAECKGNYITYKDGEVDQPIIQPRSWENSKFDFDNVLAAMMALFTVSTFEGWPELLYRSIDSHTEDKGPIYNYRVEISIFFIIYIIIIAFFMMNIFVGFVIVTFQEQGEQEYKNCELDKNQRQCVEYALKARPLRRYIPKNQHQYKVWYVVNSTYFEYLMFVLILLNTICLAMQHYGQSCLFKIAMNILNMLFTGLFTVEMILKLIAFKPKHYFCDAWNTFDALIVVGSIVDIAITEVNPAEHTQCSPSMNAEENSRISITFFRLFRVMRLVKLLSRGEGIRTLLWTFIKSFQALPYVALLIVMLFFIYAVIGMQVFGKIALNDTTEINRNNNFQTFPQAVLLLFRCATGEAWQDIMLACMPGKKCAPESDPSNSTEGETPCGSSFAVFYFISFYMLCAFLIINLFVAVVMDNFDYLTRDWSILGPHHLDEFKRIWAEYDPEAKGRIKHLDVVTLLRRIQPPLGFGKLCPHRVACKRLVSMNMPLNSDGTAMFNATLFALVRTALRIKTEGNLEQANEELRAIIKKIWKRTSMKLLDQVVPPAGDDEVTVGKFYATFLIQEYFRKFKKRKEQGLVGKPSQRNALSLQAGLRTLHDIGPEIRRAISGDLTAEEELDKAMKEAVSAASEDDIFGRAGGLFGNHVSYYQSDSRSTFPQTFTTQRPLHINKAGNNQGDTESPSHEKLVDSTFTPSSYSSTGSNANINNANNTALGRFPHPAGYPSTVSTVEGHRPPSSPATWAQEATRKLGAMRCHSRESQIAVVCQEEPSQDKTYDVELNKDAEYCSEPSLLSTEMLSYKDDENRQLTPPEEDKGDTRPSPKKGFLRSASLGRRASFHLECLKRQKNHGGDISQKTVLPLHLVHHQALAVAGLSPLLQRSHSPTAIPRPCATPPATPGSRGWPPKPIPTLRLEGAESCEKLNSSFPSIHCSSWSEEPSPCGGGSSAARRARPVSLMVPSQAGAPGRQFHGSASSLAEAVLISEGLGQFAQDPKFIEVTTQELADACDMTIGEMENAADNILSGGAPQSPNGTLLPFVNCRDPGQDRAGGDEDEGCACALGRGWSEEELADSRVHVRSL
# Method: [Calcium antagonistic effect]
# Using a spiral blood vessel specimen taken from a thoracic aorta of Hartly male giunea pig weighed 400 to 600 g, a contraction response by calcium was measured as a dose-response curve according to Magnus method and the antagonistic activity for each test compound was indicated as above-mentioned pA2 value.
# [3] = target: T2, α-adrenergic blockade (vas deferens specimen, contraction by noradrenalin) (Rattus norvegicus, UniProt P43140); assay: α-Adrenergic blockade effect (contraction response by noradrenalin of vas deferens specimen, Magnus method); parameters: species or system Wister male rat; conditions: for Kb: rat vas deferens, antagonism of noradrenalin contraction, pA2 = negative logarithm of antagonist dose shifting agonist curve two times, read-out: α-Adrenergic blockade effect, pA2 value (converted)
# T2 construct: from tissue; host or cells: vas deferens of six-week-old male Wistar rat
# T2 sequence (P43140 1-466): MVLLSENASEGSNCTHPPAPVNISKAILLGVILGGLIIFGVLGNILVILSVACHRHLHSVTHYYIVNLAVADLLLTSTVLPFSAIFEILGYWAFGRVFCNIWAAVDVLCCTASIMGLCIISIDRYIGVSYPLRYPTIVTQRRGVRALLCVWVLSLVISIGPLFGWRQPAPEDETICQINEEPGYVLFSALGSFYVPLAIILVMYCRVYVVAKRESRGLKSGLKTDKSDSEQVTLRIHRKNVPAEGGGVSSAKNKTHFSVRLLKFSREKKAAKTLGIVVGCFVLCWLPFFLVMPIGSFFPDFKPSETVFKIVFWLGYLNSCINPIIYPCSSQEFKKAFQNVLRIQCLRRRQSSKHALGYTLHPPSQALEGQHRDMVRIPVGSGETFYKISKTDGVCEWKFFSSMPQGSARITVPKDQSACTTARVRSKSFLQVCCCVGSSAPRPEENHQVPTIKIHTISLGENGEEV
# [4] = Accute toxicity test (LD50 value); conditions: mouse, in vivo; mice; single oral administration; deaths by seventh day; Litchfield-Wilcoxon
# Method: [Accute toxicity test (LD50 value)]
# The experiment was carried out using six weeks old ddy male mice.
# Each of test compounds was suspended in an aqueous solution containing 5% by weight of acasia and the suspension was administered compulsorily once orally with a gastric probe. Within six hours after the start of the administration, the behavior of tested mice were observed consecutively. Thereafter, the observation was made at an interval of twenty four hours during 7 days and an accumulative number of deaths seventh day since the start of the administration was measured.
# LD50 value was calculated according to the Litchfield-Wilcoxon method.
# [5] = Antihypertensive effect and effect on heart rate in spontaneously hypertensive rat (SHR); type: in vivo; conditions: po, single dose
# Method: [Antihypertensive effect and effect on a heart rate on rat suffering from a spontaneously hypertensive rat (SHR)]
# A blood pressure was measured under no anesthetic condition by means of an apparatus for recording a blood pressure of a tail artery and a heart rate (Riken Kaihatsu Co., Ltd.) (PS-802) and at the same time a heart rate was also measured.
# Each of test compounds was dissolved or suspended in an aqueous solution containing 5% by weight of acasia and the obtained solution or suspension was administered once orally to SHR which had been kept under a fast condition for one night. A blood pressure and a heart rate were measured before administration and after one hour, three hours, five hours and seven hours of it and the maximum value of changes were calculated by comparing the value measured before administration with the value measured after administration.
# For the purpose of a comparison, the same experiment as mentioned above was carried out on both Labetalol and Diltiazem as mentioned above.
# With respect to a dosage, 100 mg/kg and 10 mg/kg as to compounds obtained by Examples 2, 5, 6, 9 and 18 to 23 were respectively administered, 100 mg/kg as to compounds obtained by Examples 1, 3, 4, 7 and 10 to 17 was respectively administered.
# [6] = 100 mg/kg, maximum over 1, 3, 5, 7 hours (Table 3)
# [7] = 10 mg/kg, maximum over 1, 3, 5, 7 hours (Table 2)
# [8] = 100 mg/kg, maximum over 1, 3, 5, 7 hours (Table 2)
SMILES,Increasing rated of coronary blood flow when administered with a 1 mg [1] [%],Kb [2] [nM],Kb [3] [nM],"Calcium antagonistic effect, relative ratio as compared with Diltiazem ([2]; Diltiazem = 1.0)",LD50 at 168 h [4] [mg/kg],"α-Adrenergic blockade effect, relative ratio as compared with Phentolamine [3]","Maximum value of change, heart rate [5, 6] [beats/min]","Maximum value of change, systolic pressure [5, 6] [mmHg]","Maximum value of change, heart rate [5, 7] [beats/min]","Maximum value of change, systolic pressure [5, 7] [mmHg]","Maximum value of change, heart rate [5, 8] [beats/min]","Maximum value of change, systolic pressure [5, 8] [mmHg]"
"COc1ccccc1N1CCN(CC(O)COc2cccc3cc(C(C)=O)oc23)CC1 (stereo not drawn) [Ex. 2 (HCl salt), 2-acetyl-7-{2-hydroxy-3-[4-(2-methoxyphenyl)piperazinyl]-propoxy}benzofuran]",88.4 ± 14.2,195,38.9,,,,,,,,,
COc1ccccc1N1CCN(CC(O)COc2ccc3oc(C(C)=O)cc3c2)CC1 (stereo not drawn) [Ex. 5 (HCl salt)],107.5 ± 6.5,46.8,49,1.9,> 1500,3.2,,,,,,
"CC(=O)c1cc2cccc(OCC(O)CN3CCN(c4cccc(Cl)c4)CC3)c2o1 (stereo not drawn) [Ex. 8 (HCl salt), 2-acetyl-7-{3-[4-(3-chlorophenyl)piperazinyl]-2-hydroxypropoxy}benzofuran]",96.3 ± 13.1,85.1,468,,> 1000,,-98.4 ± 17.2,-44.2 ± 8.4,,,,
"COc1ccccc1N1CCN(CC(O)COc2cccc3cc(C(N)=O)oc23)CC1 (stereo not drawn) [Ex. 9, 2-carbamoyl-7-{2-hydroxy-3-[4-(2-methoxyphenyl)-piperazinyl]propoxy}benzofuran]",105.6 ± 11.8,631,27.5,,> 1500,,,,-154.2 ± 17.3,-61.2 ± 4.3,-69.2 ± 12.1,-75.6 ± 2.4
"COc1ccc(N2CCN(CC(O)COc3cccc4cc(C(N)=O)oc34)CC2)cc1 (stereo not drawn) [Ex. 10, 2-carbamoyl-7-{2-hydroxy-3-[4-(4-methoxyphenyl)piperazinyl]porpoxy,}benzofuran]",,1260,87.1,,1100,1.8,-80.0 ± 37.6,-97.9 ± 4.0,,,,
"COc1ccccc1N1CCN(CC(O)COc2ccc3cc(C(N)=O)oc3c2)CC1 (stereo not drawn) [Ex. 11, 2-carbamoyl-6-{2-hydroxy-3-[4-(2-methoxyphenyl)piperazinyl]propoxy}benzofuran]",,158,57.5,,> 1500,,-126.5 ± 27.3,-78.8 ± 7.6,,,,
COc1ccccc1N1CCN(CC(O)COc2ccc3oc(C(N)=O)cc3c2)CC1 (stereo not drawn) [Ex. 12],,1170,100,,> 1500,1.6,-110.0 ± 20.0,-100.2 ± 3.9,,,,
"Cc1ccccc1N1CCN(CC(O)COc2cccc3cc(C(N)=O)oc23)CC1 (stereo not drawn) [Ex. 13, 2-carbamoyl-7-{2-hydroxy-3-[4-(2-methylphenyl)piperazinyl]propoxy}benzofuran]",,1350,240,,> 1500,,-80.0 ± 16.6,-97.0 ± 9.8,,,,
"Cc1ccccc1N1CCN(CC(O)COc2ccc3cc(C(N)=O)oc3c2)CC1 (stereo not drawn) [Ex. 14, 2-carbamoyl-6-{2-hydroxy-3-[4-(2-methylphenyl)piperazinyl]-propoxy}benzofuran]",,182,110,,> 1000,,-132.9 ± 28.8,-67.3 ± 6.8,,,,
NC(=O)c1cc2cccc(OCC(O)CN3CCN(c4cccc(Cl)c4)CC3)c2o1 (stereo not drawn) [Ex. 15],,398,3020,,> 1000,,-100.0 ± 19.5,-79.9 ± 11.9,,,,
"COc1ccccc1N1CCN(CC(O)COc2cccc3cc(C#N)oc23)CC1 (stereo not drawn) [Ex. 16 (HCl salt), 2-cyano-7-{2-hydroxy-3-[4-(2-methoxyphenyl)piperazinyl]-propoxy} benzofuran]",,513,42.7,,900,,-189.6 ± 26.8,-13.3 ± 4.6,,,,
"COc1ccccc1N1CCN(CC(O)COc2ccc3cc(C#N)oc3c2)CC1 (stereo not drawn) [Ex. 17 (HCl salt), 2-cyano-6-{2-hydroxy-3-[4-(2-methoxyphenyl)piperazinyl]propoxy}benzofuran]",,115,204,,900,,-154.5 ± 21.1,-40.5 ± 6.6,,,,
"COc1ccccc1N1CCN(CC(O)COc2cccc3cc(C(C)O)oc23)CC1 (stereo not drawn) [Ex. 22, 2-(1-hydroxyethyl)-7-{2-hydroxy-3-[4-(2-methoxyphenyl)piperazinyl]propoxy}benzofuran]",87.7 ± 9.4,1050,50.1,,> 1500,,,,-149.2 ± 15.3,-42.8 ± 6.7,-160.2 ± 19.8,-69.5 ± 7.9
"Cc1ccccc1N1CCN(CC(O)COc2cccc3cc(C(C)O)oc23)CC1 (stereo not drawn) [Ex. 23, 2-(1-hydroxyethyl)-7-{2-hydroxy-3-[4-(2-methylphenyl)piperazinyl]propoxy}benzofuran]",,589,77.6,,> 1000,,,,-93.4 ± 17.6,-54.9 ± 9.4,-131.4 ± 22.3,-73.1 ± 9.2
"COc1ccc(Cc2nccc3cc(OC)c(OC)cc23)cc1OC [papavelin, Papavelin, reference compound]",136.3 ± 27.0,,,,,,,,,,,
